Here are results for seven molecules from publication PMC4561908, “Direct Pore Binding as a Mechanism for Isoflurane Inhibition of the Pentameric Ligand-gated Ion Channel ELIC” (Scientific Reports, 2015).

The target of one experiment is T1, ELIC A244T mutant (Dickeya chrysanthemi, UniProt P0C7B7, A243T).
T1 construct: DNA encoding ELIC and a T7 promoter was inserted into the pCMV-mGFP Cterm S11 NeoKan (Theranostech) vector; expressed in transfected cells; host or cells: Xenopus laevis oocytes (cRNA injection)
Kind of experiment: Two-electrode voltage clamp of A244T (13′) ELIC mutant in Xenopus laevis oocytes. Type of experiment: cell-based, Erwinia chrysanthemi. The source says: (§1) To establish the functional relevance of the identified isoflurane-binding sites, we made site-directed mutations, one at a time, at positions 6′ (T237A) and 13′ (A244T). Subsequently, we expressed these mutants in Xenopus laevis oocytes and measured their functional responses to isoflurane (Fig. 3). […] However, these mutant channels, especially T237A, are much less sensitive to isoflurane inhibition than the WT ELIC. […] The functional consequences of these mutations are associated with changes in the hydrophobicity profile and pore radii near positions 6′ and 13′ (Supplementary Fig. 2). It should be noted that the side chains of the hydrophobic residue at the 9′ position are involved in both of the isoflurane-binding sites (Fig. 2c). The fact that the isoflurane inhibition curve shifts an order of magnitude to the right in the T237A mutant indicates the importance of amphipathic interactions at position 6′ for isoflurane inhibition.
Figure 3 Functional evidence of isoflurane binding to the pore. (a) Representative current traces for isoflurane inhibition of WT and two mutants: T237(6′)A; and A244(13′)T. The scale bars are 0.1 μA (vertical) and 30s (horizontal). (b) Agonist propylamine (PPA) concentration-response curves for WT and two mutants indicated in (a). The data were normalized to the maximum current and fit to the Hill equation (solid lines, n ≥ 5). (c) Isoflurane inhibition of WT and the two mutants indicated in (a). The data were normalized to the current at EC20 in the absence of isoflurane and fit to the Hill equation (solid lines, n ≥ 6). The data are reported as the mean ± SEM and error bars less than the symbol size are not visible.
Site-directed mutagenesis of ELIC was introduced with the QuickChange Lightning Kit (Agilent). DNA encoding ELIC and a T7 promoter was inserted into the pCMV-mGFP Cterm S11 NeoKan (Theranostech) vector. […]
A general note: Two-electrode voltage clamp holds a large cell at a set potential and records current.

The target of experiment [1] is T2, ELIC (Dickeya chrysanthemi, UniProt P0C7B7).
T2 construct: DNA encoding ELIC and a T7 promoter was inserted into the pCMV-mGFP Cterm S11 NeoKan (Theranostech) vector; expressed in transfected cells; host or cells: Xenopus laevis oocytes (cRNA injection)
Kind of experiment: Two-electrode voltage clamp inhibition of wild-type ELIC expressed in Xenopus laevis oocytes. The experiment is classed as cell-based, Erwinia chrysanthemi. The source says: The scale bars are 0.2 μA (vertical) and 30s (horizontal). The data were normalized to the current at EC20 in the absence of anesthetics and fit to the Hill equation (solid lines, n ≥ 6) for the volatile (b) and intravenous (c) general anesthetics. […] The data are reported as the mean ± SEM and error bars less than the symbol size are not visible.
Site-directed mutagenesis of ELIC was introduced with the QuickChange Lightning Kit (Agilent). DNA encoding ELIC and a T7 promoter was inserted into the pCMV-mGFP Cterm S11 NeoKan (Theranostech) vector. Capped complementary RNA was transcribed with the mMessage mMachine T7 kit (Ambion), purified with the RNeasy kit (Qiagen), injected (10–25 ng) into Xenopus laevis oocytes (stages 5–6), which were maintained at 18 °C in a modified Barth’s solution[40]. […] Oocytes were clamped to a holding potential of −40 to −60 mV. The recording solutions contained 130 mM NaCl, 0.1 mM CaCl2, 10 mM HEPES, pH 7.0 as well as desired concentrations of agonist and anesthetics. Data were collected and processed using Clampex 10 (Molecular Devices). Non-linear regressions were performed using Prism software (Graphpad).
For measuring anesthetic inhibitory effects, saturated solutions of the volatile anesthetics isoflurane, sevoflurane, and halothane were prepared in the recording solution by stirring overnight at 4 °C. Concentrations of these anesthetics in the recording chamber were calibrated using ^19F NMR[63]. The intravenous anesthetics, propofol, etomidate, and thiopental, were dissolved directly into the recording solution.

For experiment [2], the system named is α7 nAChR. Details: method as in ref 12 (a number printed in a supplementary file, which may have a reference list of its own: not looked up in the article's list). The conditions noted are these: read-out: IC50 for nAChRs: α7 (chicken); cited from earlier work.
Another experiment deals with α4β4 nAChR. Details: method as in ref 11 (a number printed in a supplementary file, which may have a reference list of its own: not looked up in the article's list). The note with it: read-out: IC50 for nAChRs: α4β4 (chicken); cited from earlier work.
The subject of experiment [3] is α4β2 nAChR. The conditions noted are these: read-out: IC50 for nAChRs: α4β2 (rat); cited from earlier work.
The subject of experiment [4] is α4β2 nAChR. The note with it: read-out: IC50 for nAChRs: α4β2 (human); cited from earlier work.
In another experiment the test system is α2β4 nAChR. The note with it: cited from earlier work.
A further experiment deals with T3, ELIC T237A mutant (Dickeya chrysanthemi, UniProt P0C7B7, T236A).
T3 construct: DNA encoding ELIC and a T7 promoter was inserted into the pCMV-mGFP Cterm S11 NeoKan (Theranostech) vector; expressed in transfected cells; host or cells: Xenopus laevis oocytes (cRNA injection)
T3 sequence (P0C7B7 1-321 T236A): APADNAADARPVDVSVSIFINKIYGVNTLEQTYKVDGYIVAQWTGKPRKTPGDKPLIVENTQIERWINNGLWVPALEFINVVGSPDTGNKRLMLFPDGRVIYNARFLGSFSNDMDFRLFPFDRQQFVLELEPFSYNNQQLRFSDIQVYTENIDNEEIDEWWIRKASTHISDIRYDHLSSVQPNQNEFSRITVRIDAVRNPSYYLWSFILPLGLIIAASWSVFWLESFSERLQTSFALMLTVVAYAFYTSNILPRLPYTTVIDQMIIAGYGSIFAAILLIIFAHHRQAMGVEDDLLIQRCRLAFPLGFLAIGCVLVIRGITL
Kind of experiment: Two-electrode voltage clamp of T237A (6′) ELIC mutant in Xenopus laevis oocytes. The experiment is classed as cell-based, Erwinia chrysanthemi.
Description: as §1
Figure 3 Functional evidence of isoflurane binding to the pore. (a) Representative current traces for isoflurane inhibition of WT and two mutants: T237(6′)A; and A244(13′)T. The scale bars are 0.1 μA (vertical) and 30s (horizontal). (b) Agonist propylamine (PPA) concentration-response curves for WT and two mutants indicated in (a). The data were normalized to the maximum current and fit to the Hill equation (solid lines, n ≥ 5). […]

The next experiment concerns α3β4 nAChR. Details: method as in ref 8 (a number printed in a supplementary file, which may have a reference list of its own: not looked up in the article's list). The note with it: read-out: IC50 for nAChRs: α3β4; cited from earlier work.
Experiment [5] concerns the target T2, ELIC. Kind of experiment: Isoflurane pre-incubation: onset of agonist-induced ELIC current. The experiment is classed as cell-based, Erwinia chrysanthemi. The note with it: mean ± SEM, n = 15. As for the experimental part:
Since isoflurane binds to the pore of the resting state of ELIC (Fig. 2a), pre-incubating the oocytes expressing ELIC with isoflurane for a short period of time is expected to enhance the inhibitory effect.
Figure 4 Isoflurane binding stabilized the closed channel. (a) A representative trace showing that pre-incubation with isoflurane (red arrows) slowed the onset rate and increased the maximum inhibition. The vertical and horizontal scale bars represent 20 μA and 30 seconds, representatively. (b) The onset rate of the channel current can be fitted to a single exponential decay function, I = Imax (1−e^(−t/τ)). The fitting results for the onset rate τ and Imax for channels pre-incubated with isoflurane (red line) are 1.73 ± 0.04 s and −0.33 ± 0.02 μA, respectively; and 1.25 ± 0.05 s and −0.41 ± 0.03 μA, respectively, for channels without isoflurane pre-incubation (green line). The fitting parameters are expressed as mean ± SEM (n = 15).
Site-directed mutagenesis of ELIC was introduced with the QuickChange Lightning Kit (Agilent). DNA encoding ELIC and a T7 promoter was inserted into the pCMV-mGFP Cterm S11 NeoKan (Theranostech) vector. Capped complementary RNA was transcribed with the mMessage mMachine T7 kit (Ambion), purified with the RNeasy kit (Qiagen), injected (10–25 ng) into Xenopus laevis oocytes (stages 5–6), which were maintained at 18 °C in a modified Barth’s solution[40]. All procedures involving Xenopus laevis oocytes were approved by the University of Pittsburgh Institutional Animal Care and Use Committee (IACUC), Protocol 14114745. Two-electrode voltage clamp experiments were performed 16–40 hrs after injection using an Oocyte Clamp OC-725C amplifier (Warner Instruments), Digidata 1440A digitizer (Axon Instruments), and a 20 μl chamber (Automate Scientific). Oocytes were clamped to a holding potential of −40 to −60 mV. The recording solutions contained 130 mM NaCl, 0.1 mM CaCl2, 10 mM HEPES, pH 7.0 as well as desired concentrations of agonist and anesthetics. Data were collected and processed using Clampex 10 (Molecular Devices). Non-linear regressions were performed using Prism software (Graphpad).

For experiment [6] the following is noted: anesthetizing concentrations in animals; read-out: Clinical EC50; cited from earlier work.
The subject of experiment [7] is α4β2 nAChR. Details: method as in ref 6 (a number printed in a supplementary file, which may have a reference list of its own: not looked up in the article's list). The note with it: read-out: IC50 for nAChRs: α4β2 (chicken); cited from earlier work.
Experiment [8] deals with α7 nAChR. Details: method as in ref 16 (a number printed in a supplementary file, which may have a reference list of its own: not looked up in the article's list). The conditions noted are these: read-out: IC50 for nAChRs: α7 (human); cited from earlier work.
The mark [9] stands for this setting: WT ELIC, agonist propylamine (PPA) at EC20, oocytes, mean ± SEM, n ≥ 6, read-out: IC50 for ELIC.
The mark [10] stands for this setting: channels pre-incubated with isoflurane, single exponential fit.
Where [11] appears, read: channels without isoflurane pre-incubation.

Each structure is given as a SMILES string. Read-outs that look alike come from different tables or passages of the source.

T1 sequence (P0C7B7 whole entry A243T): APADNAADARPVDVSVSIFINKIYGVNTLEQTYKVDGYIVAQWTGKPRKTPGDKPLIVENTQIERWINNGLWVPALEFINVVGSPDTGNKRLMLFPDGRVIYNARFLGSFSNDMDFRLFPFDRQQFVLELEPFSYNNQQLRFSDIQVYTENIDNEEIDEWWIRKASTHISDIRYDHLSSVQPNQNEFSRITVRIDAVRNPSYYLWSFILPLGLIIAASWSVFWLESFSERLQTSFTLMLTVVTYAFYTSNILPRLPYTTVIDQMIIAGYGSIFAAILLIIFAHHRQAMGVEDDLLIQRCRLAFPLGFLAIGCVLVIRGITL
T2 sequence (P0C7B7 whole entry): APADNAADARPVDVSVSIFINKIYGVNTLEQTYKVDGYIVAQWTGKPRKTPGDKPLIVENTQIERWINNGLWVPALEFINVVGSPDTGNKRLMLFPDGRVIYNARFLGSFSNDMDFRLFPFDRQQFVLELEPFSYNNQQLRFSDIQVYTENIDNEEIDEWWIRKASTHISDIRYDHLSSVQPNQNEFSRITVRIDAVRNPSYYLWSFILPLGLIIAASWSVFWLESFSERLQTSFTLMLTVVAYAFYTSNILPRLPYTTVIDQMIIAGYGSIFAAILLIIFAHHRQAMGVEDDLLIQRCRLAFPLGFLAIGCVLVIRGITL

For the molecule `CCCN` [PPA, propylamine], at ELIC A244T mutant (A244T mutant vs wild-type ELIC), the “EC50 of agonist PPA compared with WT ELIC” value is recorded as “nearly identical”.

One may read the IC50 as the concentration needed to halve the response being measured. For `CCOC(=O)c1cncn1[C@H](C)c1ccccc1` [etomidate], the IC50 against ELIC [1] was 11.2 ± 1.1 µM; in the experiment on α7 nAChR [2], 25.3 µM; in the experiment on α4β4 nAChR, 33 µM; in the experiment on α4β2 nAChR [3], 49 µM.

For the molecule `FC(F)(F)C(Cl)Br` (centres unmarked) [halothane], the IC50 is 40 ± 4.5 µM at ELIC [1] (setting [9]), 27 µM in the experiment on α4β2 nAChR [4] and 47 µM in the experiment on α2β4 nAChR (read-out: IC50 for nAChRs: α2β4 (human)).

On to `FC(F)OC(Cl)C(F)(F)F` (centres unmarked) [isoflurane], for which the IC50 on ELIC [1] (setting [9]) was 21.9 ± 1.5 µM; on ELIC T237A mutant (T237A (6′) mutant, PPA at EC20, mean ± SEM, n ≥ 6, read-out: IC50 of isoflurane, T237A channel), 525 ± 58.2 µM; against ELIC A244T mutant, 61.7 ± 5.5 µM; with α3β4 nAChR it was 56 µM; in the experiment with α4β2 nAChR [4], 82 µM; in the experiment with α2β4 nAChR (read-out: IC50 for nAChRs: α2β4), 25 µM. Besides, the figures for the “Increase of isoflurane IC50 relative to the WT channel” value at ELIC T237A mutant (T237A vs WT ELIC) and at ELIC A244T mutant (A244T vs WT ELIC) were “more than an order of magnitude” and roughly 3 fold, respectively. Also, the “Imax of channel current” value was −0.33 ± 0.02 μA on ELIC [5] (setting [10]) and −0.41 ± 0.03 μA on ELIC [5] (setting [11]). The “Onset rate τ of channel current” value at ELIC [5] (setting [10]) worked out at 1.73 ± 0.04 s; at ELIC [5] (setting [11]), 1.25 ± 0.05 s.

One may read the EC50 as the midpoint of the concentration-response curve. On to `CC(C)c1cccc(C(C)C)c1O` [propofol], for which the IC50 on ELIC [1] (setting [9]) was 11.9 ± 1.1 µM; with α4β2 nAChR [3] it was 4.5 µM; in the experiment with α4β2 nAChR [7] it was 19 µM. For the same molecule, the EC50 in [6] is 1.5 µM.

As for `FCOC(C(F)(F)F)C(F)(F)F` [sevoflurane], the IC50 at ELIC [1] (setting [9]) was 23.2 ± 1.6 µM.

Turning to `CCCC(C)C1(CC)C(=O)NC(=S)NC1=O` (centres unmarked) [thiopental], the 50% inhibitory concentration (IC50) against ELIC [1] was 42.8 ± 1.1 µM; with α4β2 nAChR [3], 26 µM; with α7 nAChR [8], 40.6 µM. Further, the EC50 in experiment [6] is 25 µM.
